Our source for the IC50 values is paper PMC5736936, “Xylopine Induces Oxidative Stress and Causes G2/M Phase Arrest, Triggering Caspase-Mediated Apoptosis by p53-Independent Pathway in HCT116 Cells” (Oxidative Medicine and Cellular Longevity, 2017).

Assay [1] has as its system PBMC (human peripheral blood mononuclear cells). Briefly: Cytotoxic activity, alamarBlue assay, 72 h (noncancer cells). The assay is classed as cell-based. The settings on record: Homo sapiens. An excerpt:
(§1) MCF7 (human breast carcinoma), HCT116 (human colon carcinoma), HepG2 (human hepatocellular carcinoma), SCC-9 (human oral squamous cell carcinoma), HSC-3 (human oral squamous cell carcinoma), HL-60 (human promyelocytic leukemia), K-562 (human chronic myelogenous leukemia), B16-F10 (murine melanoma), MRC-5 (human lung fibroblast), WT SV40 MEF (wild-type immortalized mouse embryonic fibroblast), and BAD KO SV40 MEF (BAD gene knockout immortalized mouse embryonic fibroblast) cell lines were obtained from the American Type Culture Collection (ATCC, Manassas, VA, USA). Cells were cultured in complete medium with appropriate supplements as recommended by ATCC. All cell lines were tested for mycoplasma using the Mycoplasma Stain Kit (Sigma-Aldrich) to validate the use of cells free from contamination. Primary cell culture of peripheral blood mononuclear cells (PBMC) was obtained by standard Ficoll density protocol. The Research Ethics Committee of the Oswaldo Cruz Foundation (Salvador, BA, Brazil) approved the experimental protocol (number 031019/2013). Cell viability was examined using trypan blue exclusion assay for all experiments.
(§2) Cell viability was quantified using the alamarBlue assay according to Ahmed et al.. Cells were inserted in 96-well plates for all experiments (7 × 10^4 cells/mL for adherent cells or 3 × 10^5 cells/mL for suspended cells in 100 μL of medium). After 24 h, xylopine was dissolved in dimethyl sulfoxide (DMSO) and added to each well and incubated for 72 h. […] Four (for cell lines) or 24 h (for PBMCs) before the end of incubation, 20 μL of a stock solution (0.312 mg/mL) of the alamarBlue (resazurin, Sigma-Aldrich Co., Saint Louis, MO, USA) was added to each well. Absorbance at 570 nm and 600 nm was measured using the SpectraMax 190 Microplate Reader (Molecular Devices, Sunnyvale, CA, USA), and the drug effect was quantified as the percentage of control absorbance.
In general terms: Alamar Blue is a resazurin reagent that responds to reducing activity.

Assay [2] concerns MRC5 (human lung fibroblast). The assay is described as above. Format: cell-based. The settings on record: Homo sapiens.
Text: as §1, §2

As for `COc1ccc2c(c1)C[C@@H]1NCCc3cc4c(c-2c31)OCO4` [XYL, xylopine], the IC50 – broadly, the midpoint of a concentration-inhibition curve – in assay [1] came to 18.3 µM; in assay [2] it was 24.1 µM.
